Common to all, as to format: cell-based
Assay [1] has as its system HT29. As to the kind of experiment: Cell proliferative assay (MTT), HT29. The note with it: Homo sapiens, HT-29, 72 h incubation, read-out: IC50s HT29. On the procedure: (§1) The synthesized compounds were evaluated for their cytotoxin activity against suspended tumor cells. These cells were seeded on 96-well plates and incubated for 24 h. Selected compounds were added at various doses and incubated for 72 h, MTT was then added, and the absorbance was measured at a wavelength of 590 nm. IC50 values are expressed as the mean±SEM from the dose-response curves of at least three independent experiments.

Assay [2] relates to SW620. As to the kind of experiment: Cell proliferative assay (MTT), SW620. To be noted: Homo sapiens, SW-620, 72 h incubation, read-out: IC50s SW620. The method, then:
as §1

Assay [3] deals with K562. As to the kind of experiment: Cell proliferative assay (MTT), K562. To be noted: Homo sapiens, 72 h incubation, read-out: IC50s K562. The essentials: (§2)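 Cells were seeded and allowed 24 h before exposure to test compounds at various doses for 72 h. Viability was read by MTT absorbance at 590 nm, and IC50 values were taken from dose-response curves as mean±SEM of at least three independent experiments.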

The subject of assay [4] is HCT116. As to the kind of experiment: Cell proliferative assay (MTT), HCT116. To be noted: Homo sapiens, HCT-116, 72 h incubation, read-out: IC50s HCT116. On the procedure:
as §1

In assay [5] the test system is tumor cells. As to the kind of experiment: Cell proliferative assay (MTT), summary over tumor cells. To be noted: summary in words of Table 1; colon, liver, leukemia lines. The method, then: as §1
Assay [6] concerns HepG2. As to the kind of experiment: Cell proliferative assay (MTT), HepG2. The note with it: Homo sapiens, 72 h incubation, read-out: IC50s HepG2. The essentials: as §2
Assay [7] relates to SMMC-7221. The assay is described as follows: Cell proliferative assay (MTT), SMMC-7221. To be noted: 72 h incubation, read-out: IC50s SMMC-7221. The essentials: as §2
The test system of assay [8] is A375. As to the kind of experiment: Cell proliferative assay (MTT), A375. To be noted: Homo sapiens, A-375, 72 h incubation, read-out: IC50s A375. The essentials: as §2
Assay [9] deals with A549. The assay is described as follows: Cell proliferative assay (MTT), A549. To be noted: Homo sapiens, 72 h incubation, read-out: IC50s A549. The essentials:
as §2

In assay [10] the test system is LO2. As to the kind of experiment: Cell proliferative assay (MTT), LO2. To be noted: Homo sapiens, L02, 72 h incubation, read-out: IC50s LO2. The essentials:
as §2

Regarding `COc1ccc(/C=C/C(=O)c2ccc(OC)c3c2OC(C)(C)C=C3)c(F)c1` [SKLBC-4, (E)-3-(2-fluoro-4-methoxyphenyl)-1-(5-methoxy-2,2-dimethyl-2H-chromen-8-yl)prop-2-en-1-one], the IC50 is greater than 10 µM in [1]; 6.57 µM in assay [2]; greater than 10 µM in assay [3]; greater than 10 µM in [4]; 7.56 µM in assay [6]. Also, in [5], the “inhibitory activity against tumor cells” value is “better inhibitory activity”.
Consider `COc1ccc(C(=O)/C=C/c2ccc3ccccc3c2)c2c1C=CC(C)(C)O2` [SKLBC-10, (E)-1-(5-methoxy-2,2-dimethyl-2H-chromen-8-yl)-3-(naphthalen-2-yl)prop-2-en-1-one], for which the IC50 is 4.48 µM in assay [1]; 2.14 µM in assay [2]; 3.67 µM in [3]; greater than 10 µM in assay [4]; 0.21 µM in assay [6]. Further, the “inhibitory activity against tumor cells” value in assay [5] is reported as “better inhibitory activity”.
In the case of `CCN(CC)c1ccc(/C=C/C(=O)c2ccc(OC)c3c2OC(C)(C)C=C3)cc1` [SKLBC-12, (E)-3-(4-(diethylamino)phenyl)-1-(5-methoxy-2,2-dimethyl-2H-chromen-8-yl)prop-2-en-1-one], the IC50 was 1.31 µM in [1]; greater than 10 µM in assay [2]; 4.6 µM in assay [3]; greater than 10 µM in assay [4]; 2.3 µM in [6]. In addition, the “inhibitory activity against tumor cells” value in [5] is given as “better inhibitory activity”.
For the compound `COc1ccc(C(=O)/C=C/c2ccc(N3CCCC3)cc2)c2c1C=CC(C)(C)O2` [SKLBC-14, (E)-1-(5-methoxy-2,2-dimethyl-2H-chromen-8-yl)-3-(4-(pyrrolidin-1-yl)phenyl)prop-2-en-1-one], the IC50 is greater than 10 µM in assay [1]; greater than 10 µM in [2]; greater than 10 µM in [3]; 8.88 µM in [4]; 4.74 µM in assay [6]. The “inhibitory activity against tumor cells” value in assay [5] is reported as “better inhibitory activity”.
On to `COc1ccc(C(=O)/C=C/c2ccc3ccccc3n2)c2c1C=CC(C)(C)O2` [SKLBC-16, (E)-1-(5-methoxy-2,2-dimethyl-2H-chromen-8-yl)-3-(quinolin-2-yl)prop-2-en-1-one], for which the IC50 in assay [1] is 3.79 µM; in [2] it was 2.25 µM; in assay [3], 3.02 µM; in assay [4], greater than 10 µM; in [6], 4.28 µM. For the same compound, the “inhibitory activity against tumor cells” value in assay [5] is given as “better inhibitory activity”.
Take `COc1ccc(C(=O)/C=C/c2ccc([N+](=O)[O-])cc2)c2c1C=CC(C)(C)O2` [SKLBC-17, (E)-1-(5-methoxy-2,2-dimethyl-2H-chromen-8-yl)-3-(4-nitrophenyl)prop-2-en-1-one]: the IC50 in [1] is 3.73 µM; in [2], 3.52 µM; in assay [3], 7.77 µM; in assay [4], greater than 10 µM; in [6], 2.61 µM. In assay [5], the “inhibitory activity against tumor cells” value is “better inhibitory activity”.
As for `COc1ccc(C(=O)/C=C/c2cccc([N+](=O)[O-])c2)c2c1C=CC(C)(C)O2` [SKLBC-18, (E)-1-(5-methoxy-2,2-dimethyl-2H-chromen-8-yl)-3-(3-nitrophenyl)prop-2-en-1-one], the IC50 in assay [1] is 4.26 µM; in assay [2], 4.09 µM; in assay [3] it was 5.87 µM; in assay [4], 8.05 µM; in [6], 2.83 µM. Further, the “inhibitory activity against tumor cells” value in [5] is “better inhibitory activity”.
As to `COc1ccc(/C=C/C(=O)c2ccc(OC)c3c2OC(C)(C)C=C3)cc1O` [SKLBC-28, (E)-3-(3-hydroxy-4-methoxyphenyl)-1-(5-methoxy-2,2-dimethyl-2H-chromen-8-yl)prop-2-en-1-one], the IC50 in assay [1] is 1.47 µM; in assay [2], 0.67 µM; in [3], 3.55 µM; in assay [4], 1.63 µM; in assay [6], 0.78 µM. Besides, in [5], the “inhibitory activity against tumor cells” value is “better inhibitory activity”.
Take `COc1ccc(C(=O)/C=C/c2ccccn2)c2c1C=CC(C)(C)O2` [SKLBC-33, (E)-1-(5-methoxy-2,2-dimethyl-2H-chromen-8-yl)-3-(pyridin-2-yl)prop-2-en-1-one]: the IC50 is 2.12 µM in [1]; 5 µM in assay [2]; 5.4 µM in assay [3]; greater than 10 µM in [4]; 5.76 µM in assay [6]. The “inhibitory activity against tumor cells” value in [5] is on record as “better inhibitory activity”.
Consider `CCN(CC)c1ccc(/C=C/C(=O)c2ccc(OS(C)(=O)=O)c3c2OC(C)(C)C=C3)cc1` [SKLBC-47, (E)-8-(3-(4-(diethylamino)phenyl)acryloyl)-2,2-dimethyl-2H-chromen-5-yl methanesulfonate], for which the IC50 in assay [7] is 0.23 µM; in assay [8], 0.45 µM; in [9], 8.45 µM; in [3], 0.528 µM; in assay [6], 0.185 µM; in assay [10], greater than 20 µM. In addition, in [5], the “inhibitory activity against tumor cells” value was “better inhibitory activity”.
In the case of `C=CC(=O)Oc1ccc(C(=O)/C=C/c2ccc(N(CC)CC)cc2)c2c1C=CC(C)(C)O2` [SKLBC-49, (E)-8-(3-(4-(diethylamino)phenyl)acryloyl)-2,2-dimethyl-2H-chromen-5-yl acrylate], the IC50 turned out to be 8.6 µM in assay [7]; 4.1 µM in assay [8]; 6.9 µM in assay [9]; 2.92 µM in assay [3]; 5.55 µM in assay [6]; 8.6 µM in assay [10]. For the same compound, the “inhibitory activity against tumor cells” value in assay [5] is reported as “better inhibitory activity”.
Consider `CCN(CC)c1ccc(/C=C/C(=O)c2ccc(OC(=O)c3ccco3)c3c2OC(C)(C)C=C3)cc1` [SKLBC-50, (E)-8-(3-(4-(diethylamino)phenyl)acryloyl)-2,2-dimethyl-2H-chromen-5-yl furan-2-carboxylate], for which the IC50 in assay [7] was 9.7 µM; in assay [8], 9.2 µM; in assay [9], 1.61 µM; in [3] it was 0.59 µM; in assay [6] it was 0.703 µM; in [10] it was greater than 20 µM. In addition, in [5], the “inhibitory activity against tumor cells” value is reported as “better inhibitory activity”.
Turning to `CCN(CC)c1ccc(/C=C/C(=O)c2ccc(OC(=O)C(C)C)c3c2OC(C)(C)C=C3)cc1` [SKLBC-52, (E)-8-(3-(4-(diethylamino)phenyl)acryloyl)-2,2-dimethyl-2H-chromen-5-yl isobutyrate], the IC50 is 0.78 µM in assay [7]; 0.61 µM in assay [8]; 0.94 µM in assay [9]; 0.317 µM in assay [3]; 0.59 µM in [6]; greater than 10 µM in [10]. Further, the “inhibitory activity against tumor cells” value in [5] is given as “better inhibitory activity”.
With `CCN(CC)c1ccc(/C=C/C(=O)c2ccc(OC(=O)C3CC3)c3c2OC(C)(C)C=C3)cc1` [SKLBC-54, (E)-8-(3-(4-(diethylamino)phenyl)acryloyl)-2,2-dimethyl-2H-chromen-5-yl cyclopropanecarboxylate], the IC50 is 0.773 µM in assay [7]; 0.263 µM in assay [8]; 0.41 µM in assay [9]; 0.51 µM in assay [3]; 0.533 µM in [6]; greater than 10 µM in assay [10]. The “inhibitory activity against tumor cells” value in assay [5] is reported as “better inhibitory activity”.
`CCN(CC)c1ccc(/C=C/C(=O)c2ccc(OC(=O)Cc3cccc(C(F)(F)F)c3)c3c2OC(C)(C)C=C3)cc1` [SKLBC-55, (E)-8-(3-(4-(diethylamino)phenyl)acryloyl)-2,2-dimethyl-2H-chromen-5-yl 2-(3-(trifluoromethyl)phenyl)acetate]: the IC50 in [7] was 1.62 µM; in [8], 0.48 µM; in assay [9], 0.5 µM; in assay [3], 1.05 µM; in assay [6], 1.07 µM; in [10], greater than 10 µM. The “inhibitory activity against tumor cells” value in [5] is “better inhibitory activity”.

The record behind these values is patent US9394268B2, “(E)-1-(5-methoxy-2,2-dimethyl-2H-chromen-8-yl)-3-(4-methoxyphenyl)prop-2-en-1-one and analogs thereof, as well as preparation method and use thereof” (Sichuan University, priority 2012, dated 2016).
